Test results taken from US20260315464A1, “COMPOSITIONS, METHODS, AND SYSTEMS FOR MODULATING SPLICING OF MSH3” (REVIR THERAPEUTICS, INC., priority 2023, published 2026).

System: MSH3
Assay: QPCR assay for levels of MSH3 upon compound treatment in HEK293T or AD293 cells (fold-change of MSH3 transcript, EC50 of MSH3 downregulation; total MSH3 exons 13/14, exons 20/21; Table 8)
Format: cell-based
Settings: for mrna remaining at 1 µM / mrna remaining at 10 µM: Homo sapiens, fold-change of the MSH3 transcript, normalized to GAPDH; for mrna remaining at 1 µM: 1 μM compound; for mrna remaining at 10 µM: 10 μM compound; for EC50: EC50 of MSH3 downregulation, XtalPi
How it was run: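 HEK293T or AD293 cells were treated at 1 μM and […]; RNA-to-cDNA qPCR used TaqMan assays for total MSH3 (exons 13/14, exons 20/21) and poison-exon junctions exon 13/PE14A and exon 20/PE21A. Transcript levels were normalized to GAPDH.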

With `COc1cc(OC2CC(C)(C)NC(C)(C)C2)nnc1N1Cc2ncc(-c3cn(C)nc3C)cc2C1=O` [Compound 203, 3-(1,3-dimethyl-1H-pyrazol-4-yl)-6-(4-methoxy-6-((2,2,6,6-tetramethylpiperidin-4-yl)oxy)pyridazin-3-yl)-6,7-dihydro-5H-pyrrolo[3,4-b]pyridin-5-one] the mrna remaining at 1 µM was 56% and the mrna remaining at 10 µM was 62%.

In the case of `Cc1nn(C)cc1-c1cc(Cl)c2c(c1)C(=O)N(c1ccc(O[C@H]3C[C@]4(C)CC[C@](C)(C3)N4)nn1)C2` [Compound 447, 4-chloro-6-(1,3-dimethyl-1H-pyrazol-4-yl)-2-(6-(((1R,3s,5S)-1,5-dimethyl-8-azabicyclo[3.2.1]octan-3-yl)oxy)pyridazin-3-yl)isoindolin-1-one], the mrna remaining at 1 µM is reported as 94%.

Molecule `Cc1nn(C)nc1-c1cnc2c(c1)C(=O)N(c1ccc(N3CCC[C@@H](NC(C)(C)C)C3)nn1)C2` [Compound 616, (R)-6-(6-(3-(tert-butylamino)piperidin-1-yl)pyridazin-3-yl)-3-(2,5-dimethyl-2H-1,2,3-triazol-4-yl)-6,7-dihydro-5H-pyrrolo[3,4-b]pyridin-5-one] has a mrna remaining at 1 µM of 100% and a mrna remaining at 10 µM of 67%.

`CN(c1ccc(N2Cc3cnc(-c4cn(C)nc4C(F)(F)F)cc3C2=O)nn1)[C@H]1C[C@]2(C)CC[C@](C)(C1)N2` [Compound 61, 2-(6-(((1R,3s,5S)-1,5-dimethyl-8-azabicyclo[3.2.1]octan-3-yl)(methyl)amino)pyridazin-3-yl)-6-(1-methyl-3-(trifluoromethyl)-1H-pyrazol-4-yl)-2,3-dihydro-1H-pyrrolo[3,4-c]pyridin-1-one] gave a mrna remaining at 1 µM of 44% and a mrna remaining at 10 µM of 18%.

Work on `CN(c1ccc(N2Cc3ccc(-c4cnn(C)c4)cc3C2=O)nn1)[C@H]1C[C@]2(C)CC[C@](C)(C1)N2` [Compound 367, 2-(6-(((1R,3s,5S)-1,5-dimethyl-8-azabicyclo[3.2.1]octan-3-yl)(methyl)amino)pyridazin-3-yl)-6-(1-methyl-1H-pyrazol-4-yl)isoindolin-1-one] yielded a mrna remaining at 1 µM of 57% and a mrna remaining at 10 µM of 27%.

In the case of `Cc1nn(C)cc1-c1cc2c(cn1)CN(c1ccc(OC3CCC(C)(C)NC(C)(C)C3)nn1)C2=O` (centres unmarked) [Compound 457, 6-(1,3-dimethyl-1H-pyrazol-4-yl)-2-(6-((2,2,7,7-tetramethylazepan-4-yl)oxy)pyridazin-3-yl)-2,3-dihydro-1H-pyrrolo[3,4-c]pyridin-1-one], the mrna remaining at 1 µM is reported as 85% and the mrna remaining at 10 µM is reported as 70%.

`Cc1cn(-c2cc(C#N)c3c(c2)C(=O)N(c2ccc(O[C@H]4C[C@]5(C)CC[C@](C)(C4)N5)nn2)C3)nn1` [Compound 591, 2-(6-(((1R,3s,5S)-1,5-dimethyl-8-azabicyclo[3.2.1]octan-3-yl)oxy)pyridazin-3-yl)-6-(4-methyl-1H-1,2,3-triazol-1-yl)-1-oxoisoindoline-4-carbonitrile] gave an EC50 of 634 nM, a mrna remaining at 1 µM of 109% and a mrna remaining at 10 µM of 91%.

In the case of `Cc1nn(C)cc1-c1cnc2c(c1)C(=O)N(c1ccc(N(C)C3CC(C)(C)NC(C)(C)C3)nn1)C2` [Compound 156, 3-(1,3-dimethyl-1H-pyrazol-4-yl)-6-(6-(methyl(2,2,6,6-tetramethylpiperidin-4-yl)amino)pyridazin-3-yl)-6,7-dihydro-5H-pyrrolo[3,4-b]pyridin-5-one], the mrna remaining at 1 µM is reported as 81% and the mrna remaining at 10 µM is reported as 19%.

`Cn1nc(Cl)c(-c2cnc3c(n2)C(=O)N(c2ccc(OC4CCC(C)(C)NC(C)(C)C4)nn2)C3)n1` (centres unmarked) [Compound 509, 3-(5-chloro-2-methyl-2H-1,2,3-triazol-4-yl)-6-(6-((2,2,7,7-tetramethylazepan-4-yl)oxy)pyridazin-3-yl)-6,7-dihydro-5H-pyrrolo[3,4-b]pyrazin-5-one] gave a mrna remaining at 1 µM of 117% and a mrna remaining at 10 µM of 62%.

`Cn1ncc(-c2cc3c(cn2)CN(c2ccc(OC4CCC(C)(C)NC(C)(C)C4)nn2)C3=O)n1` (centres unmarked) [Compound 465, 6-(2-methyl-2H-1,2,3-triazol-4-yl)-2-(6-((2,2,7,7-tetramethylazepan-4-yl)oxy)pyridazin-3-yl)-2,3-dihydro-1H-pyrrolo[3,4-c]pyridin-1-one] showed a mrna remaining at 1 µM of 93% and a mrna remaining at 10 µM of 115%.

With `Cc1nn(C)nc1-c1cnc2c(n1)C(=O)N(c1ccc(O[C@H]3C[C@]4(C)CC[C@](C)(C3)N4)nn1)C2` [Compound 623, 3-(2,5-dimethyl-2H-1,2,3-triazol-4-yl)-6-(6-(((1R,3s,5S)-1,5-dimethyl-8-azabicyclo[3.2.1]octan-3-yl)oxy)pyridazin-3-yl)-6,7-dihydro-5H-pyrrolo[3,4-b]pyrazin-5-one] the EC50 was 2990 nM, the mrna remaining at 1 µM was 60% and the mrna remaining at 10 µM was 13%.

`Cn1ncc(-c2cc(F)c3c(c2)C(=O)N(c2ccc(N4CCN[C@@H](C(C)(C)C)C4)nn2)C3)n1` [Compound 630, (S)-2-(6-(3-(tert-butyl)piperazin-1-yl)pyridazin-3-yl)-4-fluoro-6-(2-methyl-2H-1,2,3-triazol-4-yl)isoindolin-1-one] gave a mrna remaining at 1 µM of 106% and a mrna remaining at 10 µM of 72%.

Work on `Cn1nc(Cl)c(-c2cnc3c(c2)C(=O)N(c2ccc(O[C@H]4CCC(C)(C)NC(C)(C)C4)nn2)C3)n1` [Compound 607, (S)-3-(5-chloro-2-methyl-2H-1,2,3-triazol-4-yl)-6-(6-((2,2,7,7-tetramethylazepan-4-yl)oxy)pyridazin-3-yl)-6,7-dihydro-5H-pyrrolo[3,4-b]pyridin-5-one] yielded a mrna remaining at 1 µM of 72% and a mrna remaining at 10 µM of 9%.

Molecule `Cc1nn(C)nc1-c1cc(F)c2c(c1)C(=O)N(c1ccc(N3CC4CC(C3)N4)nn1)C2` [Compound 662, 2-(6-(3,6-diazabicyclo[3.1.1]heptan-3-yl)pyridazin-3-yl)-6-(2,5-dimethyl-2H-1,2,3-triazol-4-yl)-4-fluoroisoindolin-1-one] has a mrna remaining at 1 µM of 191% and a mrna remaining at 10 µM of 87%.

Molecule `CN(c1ccc(N2Cc3c(F)cc(-c4cnn(CC(C)(C)O)n4)cc3C2=O)nn1)C1CC(C)(C)NC(C)(C)C1` [Compound 633, 4-fluoro-6-(2-(2-hydroxy-2-methylpropyl)-2H-1,2,3-triazol-4-yl)-2-(6-(methyl(2,2,6,6-tetramethylpiperidin-4-yl)amino)pyridazin-3-yl)isoindolin-1-one] has a mrna remaining at 1 µM of 109% and a mrna remaining at 10 µM of 89%.

With `Cc1nn(C)nc1-c1cnc2c(c1)C(=O)N(c1ccc(N3CC4CC3CN4)nn1)C2` (centres unmarked) [Compound 560, 6-(6-(2,5-diazabicyclo[2.2.1]heptan-2-yl)pyridazin-3-yl)-3-(2,5-dimethyl-2H-1,2,3-triazol-4-yl)-6,7-dihydro-5H-pyrrolo[3,4-b]pyridin-5-one] the mrna remaining at 1 µM was 81% and the mrna remaining at 10 µM was 29%.

With `Cn1nc(Cl)c(-c2cnc3c(c2)C(=O)N(c2ccc(S[C@H]4C[C@]5(C)CC[C@](C)(C4)N5)nn2)C3)n1` [Compound 610, 3-(5-chloro-2-methyl-2H-1,2,3-triazol-4-yl)-6-(6-(((1R,3s,5S)-1,5-dimethyl-8-azabicyclo[3.2.1]octan-3-yl)thio)pyridazin-3-yl)-6,7-dihydro-5H-pyrrolo[3,4-b]pyridin-5-one] the mrna remaining at 1 µM was 93% and the mrna remaining at 10 µM was 66%.

`Cn1nc(Cl)c(-c2cc(F)c3c(c2)C(=O)N(c2ccc(N4CCN[C@@H](C(C)(C)C)C4)nn2)C3)n1` [Compound 637, (S)-2-(6-(3-(tert-butyl)piperazin-1-yl)pyridazin-3-yl)-6-(5-chloro-2-methyl-2H-1,2,3-triazol-4-yl)-4-fluoroisoindolin-1-one] gave a mrna remaining at 1 µM of 150% and a mrna remaining at 10 µM of 31%.

Work on `Cc1nn(C)cc1-c1cnc2c(c1)C(=O)N(c1ccc(NC3CC(C)(C)NC(C)(C)C3)nn1)C2` [Compound 207, 3-(1,3-dimethyl-1H-pyrazol-4-yl)-6-(6-((2,2,6,6-tetramethylpiperidin-4-yl)amino)pyridazin-3-yl)-6,7-dihydro-5H-pyrrolo[3,4-b]pyridin-5-one] yielded an EC50 of about 3050 nM, a mrna remaining at 1 µM of 108% and a mrna remaining at 10 µM of 18%.

`Cn1nc(Cl)c(-c2cnc3c(c2)C(=O)N(c2ccc(OC4CCC(C)(C)NC(C)(C)C4)nn2)C3)n1` (centres unmarked) [Compound 488, 3-(5-chloro-2-methyl-2H-1,2,3-triazol-4-yl)-6-(6-((2,2,7,7-tetramethylazepan-4-yl)oxy)pyridazin-3-yl)-6,7-dihydro-5H-pyrrolo[3,4-b]pyridin-5-one] showed a mrna remaining at 1 µM of 69% and a mrna remaining at 10 µM of 19%.

`Cc1ncc(-c2cnc3c(c2)C(=O)N(c2ccc(O[C@H]4C[C@]5(C)CC[C@](C)(C4)N5)nn2)C3)s1` [Compound 598, 6-(6-(((1R,3s,5S)-1,5-dimethyl-8-azabicyclo[3.2.1]octan-3-yl)oxy)pyridazin-3-yl)-3-(2-methylthiazol-5-yl)-6,7-dihydro-5H-pyrrolo[3,4-b]pyridin-5-one] was tested, and the mrna remaining at 1 µM was 62% and the mrna remaining at 10 µM was 52%.

`CC(C)(O)Cn1cc(-c2cc(F)c3c(c2)C(=O)N(c2ccc(OC4CC(C)(C)NC(C)(C)C4)nn2)C3)c(Cl)n1` [Compound 649, 6-(3-chloro-1-(2-hydroxy-2-methylpropyl)-1H-pyrazol-4-yl)-4-fluoro-2-(6-((2,2,6,6-tetramethylpiperidin-4-yl)oxy)pyridazin-3-yl)isoindolin-1-one] showed a mrna remaining at 1 µM of 106% and a mrna remaining at 10 µM of 63%.

For `Cn1nc(Cl)c(-c2cc(F)c3c(c2)C(=O)N(c2ccc(N4CCN5CCC[C@H]5C4)nn2)C3)n1` [Compound 671, (S)-6-(5-chloro-2-methyl-2H-1,2,3-triazol-4-yl)-4-fluoro-2-(6-(hexahydropyrrolo[1,2-a]pyrazin-2(1H)-yl)pyridazin-3-yl)isoindolin-1-one], the mrna remaining at 1 µM was 94% and the mrna remaining at 10 µM was 47%.

`CN(C)C1CCN(c2ccc(N3Cc4ncc(-c5nn(C)nc5Cl)cc4C3=O)nn2)CC1` [Compound 618, 3-(5-chloro-2-methyl-2H-1,2,3-triazol-4-yl)-6-(6-(4-(dimethylamino)piperidin-1-yl)pyridazin-3-yl)-6,7-dihydro-5H-pyrrolo[3,4-b]pyridin-5-one] was tested, and the mrna remaining at 1 µM was 83% and the mrna remaining at 10 µM was 68%.
